Test results from patent US7877928B2, “Apparatus for use with a method for mass production of seedling of seed potato” (Koesan County, priority 2005, dated 2011).

How the values were obtained:
[1] = test system: in vitro potato seedlings, potato cultivar "Superior"; assay: Seedling quality (growth state) of in vitro tissue-cultured potato plantlets according to supplemented components of MS medium; type: in vivo
Protocol: (§1) In order to determine conditions suitable for planting through stem cutting and acclimatizing tissue-cultured plantlets in DSCAC, the in vitro potato seedlings were evaluated for seedling quality and survival rates upon stem-cutting and acclimation according to the amount of supplemented components of MS medium.
(§2) The culture seedlings obtained from growing points collected from a seed potato cultivar, were tested for infection with viruses (PLRV, PVY, PVX, PVM, PVS and AMV) for selection of disease-free individuals. Then, plantlets were planted in 500-ml culture bottles containing 200 ml of a solid medium, which was prepared with a basic MS medium of pH 5.8 supplemented with 9 g/L of agar, and incubated for 25 days in a culture room under 4,500 Lux lighting for 18-20 hrs, and 0 Lux for 4-6 hrs using 4D fluorescent lamps, wherein the room temperature was maintained at 21° C. using an air conditioner. The in vitro potato seedlings were examined for growth states and survival rates upon stem-cutting and acclimation according to the amount of supplemented components of the medium.

[2] = test system: in vitro potato seedlings, potato cultivar "Superior"; assay: Survival rates of stem cuttings of in vitro potato seedlings upon stem-cutting and acclimation according to supplemented components of MS medium; type: in vivo
Protocol: as §1, §2

[3] = coumarin 0.010 mg/L + sucrose 30 g/L in MS medium
[4] = coumarin 0.010 mg/L + sucrose 80 g/L in MS medium
[5] = coumarin 0.015 mg/L + sucrose 30 g/L in MS medium
[6] = coumarin 0.015 mg/L + sucrose 80 g/L in MS medium
[7] = coumarin 0.020 mg/L + sucrose 30 g/L in MS medium
[8] = coumarin 0.020 mg/L + sucrose 80 g/L in MS medium
[9] = coumarin 0.025 mg/L + sucrose 30 g/L in MS medium
[10] = coumarin 0.025 mg/L + sucrose 80 g/L in MS medium
[11] = coumarin 0.030 mg/L + sucrose 30 g/L in MS medium
[12] = coumarin 0.030 mg/L + sucrose 80 g/L in MS medium
[13] = coumarin 0.035 mg/L + sucrose 30 g/L in MS medium
[14] = coumarin 0.035 mg/L + sucrose 80 g/L in MS medium
[15] = Table 2: sucrose 30 g/L, coumarin 0 mg/L in MS medium
[16] = Table 2: sucrose 80 g/L, coumarin 0 mg/L in MS medium
[17] = Table 3: sucrose 30 g/L, hyponex 0 g/L in MS medium
[18] = Table 3: sucrose 80 g/L, hyponex 0 g/L in MS medium
[19] = sucrose 20 g/L in MS medium, 25 days
[20] = sucrose 40 g/L in MS medium, 25 days
[21] = sucrose 60 g/L in MS medium, 25 days
[22] = sucrose 80 g/L in MS medium, 25 days
[23] = sucrose 100 g/L in MS medium, 25 days
[24] = sucrose 120 g/L in MS medium, 25 days
[25] = sucrose 140 g/L in MS medium, 25 days

**Q.** For `O=c1ccc2ccccc2o1` [Coumarin, coumarin], which “Seedling quality and survival rates” value ([1]; MS medium with 80 g/L sucrose and 0.025 mg/L coumarin, compared with other amounts) is on record?
**A.** The value was “highest seedling quality and survival rates”.

**Q.** And the Fresh weight [1, 3]?
**A.** The Fresh weight was 0.57 g/plant.

**Q.** And the Plant length [1, 3]?
**A.** Its Plant length is 6.1 cm/plant.

**Q.** And the Fresh weight [1, 4]?
**A.** Its Fresh weight is 1.12 g/plant.

**Q.** And the Plant length [1, 4]?
**A.** The Plant length was 7.8 cm/plant.

**Q.** What about the Fresh weight [1, 5] of the same compound?
**A.** The Fresh weight was 0.63 g/plant.

**Q.** And the Plant length [1, 5]?
**A.** The Plant length was 6.5 cm/plant.

**Q.** What about the Fresh weight [1, 6] of the same compound?
**A.** The Fresh weight was 1.13 g/plant.

**Q.** What about the Plant length [1, 6] of the same compound?
**A.** Its Plant length is 7.9 cm/plant.

**Q.** And the Fresh weight [1, 7]?
**A.** Its Fresh weight is 0.71 g/plant.

**Q.** What about the Plant length [1, 7] of the same compound?
**A.** Its Plant length is 6.7 cm/plant.

**Q.** What about the Fresh weight [1, 8] of the same compound?
**A.** The Fresh weight was 1.31 g/plant.

**Q.** And the Plant length [1, 8]?
**A.** The Plant length was 8.1 cm/plant.

**Q.** What about the Fresh weight [1, 9] of the same compound?
**A.** The Fresh weight was 0.84 g/plant.

**Q.** And the Plant length [1, 9]?
**A.** Its Plant length is 6.9 cm/plant.

**Q.** What about the Fresh weight [1, 10] of the same compound?
**A.** The Fresh weight was 1.65 g/plant.

**Q.** What about the Plant length [1, 10] of the same compound?
**A.** Its Plant length is 9.5 cm/plant.

**Q.** And the Fresh weight [1, 11]?
**A.** The Fresh weight was 0.86 g/plant.

**Q.** What about the Plant length [1, 11] of the same compound?
**A.** Its Plant length is 6.7 cm/plant.

**Q.** What about the Fresh weight [1, 12] of the same compound?
**A.** Its Fresh weight is 1.39 g/plant.

**Q.** What about the Plant length [1, 12] of the same compound?
**A.** Its Plant length is 8.3 cm/plant.

**Q.** And the Fresh weight [1, 13]?
**A.** The Fresh weight was 0.71 g/plant.

**Q.** And the Plant length [1, 13]?
**A.** Its Plant length is 6.4 cm/plant.

**Q.** What about the Fresh weight [1, 14] of the same compound?
**A.** Its Fresh weight is 1.36 g/plant.

**Q.** And the Plant length [1, 14]?
**A.** Its Plant length is 8.2 cm/plant.

**Q.** And the “Survival rates of stem cuttings” value [2, 3]?
**A.** Its value is 73.

**Q.** What about the “Survival rates of stem cuttings” value [2, 4] of the same compound?
**A.** Its value is 90.

**Q.** What about the “Survival rates of stem cuttings” value [2, 5] of the same compound?
**A.** The value was 78.

**Q.** And the “Survival rates of stem cuttings” value [2, 6]?
**A.** Its value is 92.

**Q.** What about the “Survival rates of stem cuttings” value [2, 7] of the same compound?
**A.** The value was 80.

**Q.** What about the “Survival rates of stem cuttings” value [2, 8] of the same compound?
**A.** The value was 100.

**Q.** What about the “Survival rates of stem cuttings” value [2, 9] of the same compound?
**A.** The value was 83.

**Q.** And the “Survival rates of stem cuttings” value [2, 10]?
**A.** Its value is 100.

**Q.** What about the “Survival rates of stem cuttings” value [2, 11] of the same compound?
**A.** The value was 88.

**Q.** And the “Survival rates of stem cuttings” value [2, 12]?
**A.** Its value is 100.

**Q.** What about the “Survival rates of stem cuttings” value [2, 13] of the same compound?
**A.** The value was 81.

**Q.** What about the “Survival rates of stem cuttings” value [2, 14] of the same compound?
**A.** Its value is 100.

**Q.** Which Fresh weight [1, 15] does the source give for `OC[C@H]1O[C@@](CO)(O[C@H]2O[C@H](CO)[C@@H](O)[C@H](O)[C@H]2O)[C@@H](O)[C@@H]1O` [Sucrose, sucrose] here?
**A.** The Fresh weight was 0.53 g/plant.

**Q.** What about the Plant length [1, 15] of the same compound?
**A.** The Plant length was 5.3 cm/plant.

**Q.** What about the Fresh weight [1, 16] of the same compound?
**A.** Its Fresh weight is 0.72 g/plant.

**Q.** And the Plant length [1, 16]?
**A.** The Plant length was 8.6 cm/plant.

**Q.** What about the Fresh weight [1, 17] of the same compound?
**A.** Its Fresh weight is 0.53 g/plant.

**Q.** What about the Plant length [1, 17] of the same compound?
**A.** Its Plant length is 7.2 cm/plant.

**Q.** What about the Fresh weight [1, 18] of the same compound?
**A.** Its Fresh weight is 1.03 g/plant.

**Q.** And the Plant length [1, 18]?
**A.** Its Plant length is 7.59 cm/plant.

**Q.** And the Fresh weight [1, 19]?
**A.** The Fresh weight was 0.47 g/plant.

**Q.** And the Plant length [1, 19]?
**A.** The Plant length was 6.2 cm/plant.

**Q.** What about the Fresh weight [1, 20] of the same compound?
**A.** The Fresh weight was 0.53 g/plant.

**Q.** And the Plant length [1, 20]?
**A.** Its Plant length is 7.4 cm/plant.

**Q.** And the Fresh weight [1, 21]?
**A.** The Fresh weight was 0.58 g/plant.

**Q.** What about the Plant length [1, 21] of the same compound?
**A.** Its Plant length is 9.3 cm/plant.

**Q.** What about the Fresh weight [1, 22] of the same compound?
**A.** The Fresh weight was 0.75 g/plant.

**Q.** And the Plant length [1, 22]?
**A.** Its Plant length is 9.5 cm/plant.

**Q.** What about the “Benefit to in vitro plantlets (plant length, fresh weight, survival rates of stem cuttings)” value ([1]; sucrose 80 g/L in MS medium, compared with other amounts) of the same compound?
**A.** The value was “most beneficial”.

**Q.** And the Fresh weight [1, 23]?
**A.** The Fresh weight was 0.69 g/plant.

**Q.** What about the Plant length [1, 23] of the same compound?
**A.** Its Plant length is 6.1 cm/plant.

**Q.** And the Fresh weight [1, 24]?
**A.** Its Fresh weight is 0.63 g/plant.

**Q.** And the Plant length [1, 24]?
**A.** The Plant length was 5.2 cm/plant.

**Q.** And the Fresh weight [1, 25]?
**A.** The Fresh weight was 0.67 g/plant.

**Q.** And the Plant length [1, 25]?
**A.** Its Plant length is 2.1 cm/plant.

**Q.** And the “Survival rates of stem cuttings” value [2, 15]?
**A.** The value was 33.

**Q.** And the “Survival rates of stem cuttings” value [2, 16]?
**A.** The value was 70.

**Q.** What about the “Survival rates of stem cuttings” value [2, 17] of the same compound?
**A.** The value was 28.

**Q.** What about the “Survival rates of stem cuttings” value [2, 18] of the same compound?
**A.** Its value is 79.

**Q.** And the “Survival rates of stem cuttings” value ([2]; sucrose 20 g/L in MS medium)?
**A.** Its value is 27%.

**Q.** What about the “Survival rates of stem cuttings” value ([2]; sucrose 40 g/L in MS medium) of the same compound?
**A.** Its value is 34%.

**Q.** And the “Survival rates of stem cuttings” value ([2]; sucrose 60 g/L in MS medium)?
**A.** Its value is 59%.

**Q.** And the “Survival rates of stem cuttings” value ([2]; sucrose 80 g/L in MS medium)?
**A.** Its value is 71%.

**Q.** And the “Survival rates of stem cuttings” value ([2]; sucrose 100 g/L in MS medium)?
**A.** Its value is 68%.

**Q.** And the “Survival rates of stem cuttings” value ([2]; sucrose 120 g/L in MS medium)?
**A.** The value was 67%.

**Q.** What about the “Survival rates of stem cuttings” value ([2]; sucrose 140 g/L in MS medium) of the same compound?
**A.** Its value is 72%.
